Measurements: US20050113405A1, “Methods of treating rheumatoid arthritis using NF-kB inhibitors” (Wyeth, priority 2003, published 2005)

Legend:
HLA-B27 transgenic rats [1] = assay: HLA-B27 transgenic rat, stool and clinical joint scores; assay type: in vivo; settings: sub-optimal dose 0.6 mg/kg
Text: (§1) The HLA-B27 transgenic rat expresses two human proteins (HLA-B27 and β2 microglobulin) that, over time, provoke a misdirected immune response. This model represents a chronic intestinal inflammation with associated arthritis induced by the human class I major histocompatibility allele HLA-B27 that is strongly associated with human disease. […] If the disease is allowed to progress, they begin to show symptoms of arthritis. […] Histological scoring of synovitis and cartilage damage in the tarsal joints after 29 days of treatment was also conducted.

HLA-B27 transgenic rats [2] = assay: HLA-B27 transgenic rat, histological scoring of synovitis and cartilage damage in tarsal joints; assay type: in vivo; settings: 0.6 mg/kg orally for 29 days
Text: as §1

SMILES: COc1cc(OC)cc(N2CCN(C(=O)[C@](C)(C#N)[C@H](c3ccccc3OC)c3cccc4ccccc34)CC2)c1 [Example 4, (S)-3-[4-(3,5-dimethoxyphenyl)piperazin-1-yl]-2-[(S)-(2-methoxyphenyl)(1-naphthyl)methyl]-2-methyl-3-oxopropanenitrile]
- melting point: 186 to 188 °C

SMILES: C[C@]12C=CC(=O)C=C1CC[C@@H]1[C@@H]2[C@@H](O)C[C@@]2(C)[C@H]1CC[C@]2(O)C(=O)CO [Prednisolone]
- improvement in the joint scores (HLA-B27 transgenic rats [1]): 50%
- Tidemark Integrity (0-2) (HLA-B27 transgenic rats [2]): 0
- Cartilage Cells (HLA-B27 transgenic rats [2]; mean ± SD): 2.20 ± 0.45
- Cartilage Structure (0-6) (HLA-B27 transgenic rats [2]; mean ± SD): 3.40 ± 0.55
- Fibroplasia (0-3) (HLA-B27 transgenic rats [2]; mean ± SD): 2.00 ± 0.71
- Inflammatory Cells (0-3) (HLA-B27 transgenic rats [2]; mean ± SD): 2.00 ± 0.00
- Pannus (0-2) (HLA-B27 transgenic rats [2]; mean ± SD): 1.60 ± 0.89
- Safranin-O/Fast Green Staining (0-4) (HLA-B27 transgenic rats [2]; mean ± SD): 3.00 ± 0.00
- Synovial Structure (0-3) (HLA-B27 transgenic rats [2]; mean ± SD): 2.40 ± 0.55
- Total Mankin Score (HLA-B27 transgenic rats [2]; mean ± SD): 8.60 ± 0.89
- Total Synovitis Score (0-11) (HLA-B27 transgenic rats [2]; mean ± SD): 8.00 ± 1.87
